From publication PMC5608427, “Convergent evolution involving dimeric and trimeric dUTPases in pathogenicity island mobilization” (PLoS Pathogens, 2017)

What was measured:
[1] = target: SaPIbov1-encoded Stl repressor (Staphylococcus aureus (pathogenicity island SaPIbov1)); experiment: native gel or EMSA
[2] = test system: T1, ϕDII Dut (dimeric dUTPase); experiment: Malachite Green phosphate assay; type: biochemical, Staphylococcus phage phiDII; conditions: 3-400 μM dUTP; 25°C; free Dut, no Stl; decimal comma (11.1)
T1 construct: His-tagged, pET-28a, E. coli BL21(DE3)
Excerpt: Malachite Green phosphate assay on ϕDII Dut (dimeric dUTPase)

[3] = test system: T2, ϕO11 Dut (dimeric dUTPase); experiment: Malachite Green phosphate assay; type: biochemical, Staphylococcus phage phiO11; conditions: 3-400 μM dUTP; 25°C; free Dut, no Stl; decimal comma (17.4)
T2 construct: His-tagged, pET-28a, E. coli BL21(DE3); not the trimeric Dut of phage ϕ11
Excerpt: Malachite Green phosphate assay on ϕO11 Dut (dimeric dUTPase)

[4] = test system: T3, ϕNM1 Dut (dimeric dUTPase); experiment: Malachite Green phosphate assay; type: biochemical, Staphylococcus phage phiNM1; conditions: 3-400 μM dUTP; 25°C; free Dut, no Stl; decimal comma (17.5)
T3 construct: His-tagged, pET-28a, E. coli BL21(DE3)
Excerpt: Malachite Green phosphate assay on ϕNM1 Dut (dimeric dUTPase)

[5] = test system: T4, ϕ55 Dut (dimeric dUTPase); experiment: Malachite Green phosphate assay; type: biochemical, Staphylococcus phage 55; conditions: 3-400 μM dUTP; 25°C; free Dut, no Stl; decimal comma (13.6)
T4 construct: His-tagged, pET-28a, E. coli BL21(DE3)
Excerpt: Malachite Green phosphate assay on ϕ55 Dut (dimeric dUTPase)

ϕDI Dut-Stl complex [6] = target: T5, ϕDI Dut-Stl complex (Staphylococcus aureus, UniProt A0A2D0TC87); experiment: Native-PAGE, disruption of Dut-Stl complex; conditions: equimolar Dut and Stl (17 μM); 4°C electrophoresis; competes with Stl binding to Dut
T5 construct: His-tagged Dut and purified Stl, E. coli; 1:1 molar ratio of Dut and Stl; with SaPIbov1 master repressor Stl (Staphylococcus aureus pathogenicity island SaPIbov1)
Excerpt: Native-PAGE, disruption of Dut-Stl complex on ϕDI Dut-Stl complex | competing away the dimeric ϕDI Dut from binding to the SaPI Stl repressor, with an IC50

[7] = target: T6, ϕDI Dut (dimeric dUTPase) (Staphylococcus aureus, UniProt A0A2D0TC87); experiment: isothermal titration calorimetry; type: binding; conditions: 50 mM HEPES pH 7.5, 250 mM NaCl, 5 mM MgCl2, 25°C; single-site model; read-out: dissociation constant
T6 construct: His-tagged, pET-28a, E. coli BL21(DE3); homodimer; eight helices, residues 7-163 in helices
Excerpt: isothermal titration calorimetry on ϕDI Dut (dimeric dUTPase) | used to calculate the dissociation constant of ϕDI and ϕDI^A73L Duts against dUPNPP

[8] = target: T6, ϕDI Dut (dimeric dUTPase); experiment: X-ray crystallography, […] Å; type: binding; conditions: Mg2+; active site, two Mg2+ per nucleotide
ϕDI Dut-Stl complex [9] = target: T5, ϕDI Dut-Stl complex; experiment: Native-PAGE, disruption of Dut-Stl complex; type: binding; conditions: equimolar Dut and Stl; dUMP up to 1 mM

dimeric dUTPase (Dut) from S. aureus phage ϕO11 (enzyme)
stoichiometry N (Dut:Stl molar ratio) [1]: 1

O=c1ccn([C@H]2C[C@H](O)[C@@H](COP(=O)(O)OP(=O)(O)OP(=O)(O)O)O2)c(=O)[nH]1 [dUTP]
Km [2]: 11.1 µM | Km [3]: 17.4 µM | Km [4]: 17.5 µM | Km [5]: 13.6 µM

dimeric dUTPase (Dut) from S. aureus phage ϕDI (enzyme)
stoichiometry N (Dut:Stl molar ratio) [1]: 1

O=c1ccn([C@H]2C[C@H](O)[C@@H](COP(=O)(O)NP(=O)(O)OP(=O)(O)O)O2)c(=O)[nH]1 [dUPNPP, 2-Deoxyuridine-5-[(α,β)-imido]triphosphate]
IC50 (ϕDI Dut-Stl complex [6]): 13.9 µM | Kd [7]: 4.9 µM | X-ray crystallography, 2.1 Å [8]: structure of the ϕDI Dut in complex with dUPNPP

O=c1ccn([C@H]2C[C@H](O)[C@@H](COP(=O)(O)O)O2)c(=O)[nH]1 [dUMP]
Native-PAGE, disruption of Dut-Stl complex (ϕDI Dut-Stl complex [9]): only a weak reduction in ϕDI Dut-Stl binding was observed
